Source: US20050090527A1, “Combination of H1, H3 and H4 receptor antagonists for treatment of allergic and non-allergic pulmonary inflammation, congestion and allergic rhinitis” (Schering Corporation, priority 2003, published 2005)
Where two headings read alike, the source gives them in different places. Blank lines part the entries; values can stand above or below the compound they belong to.

Tests used:
[1] = biological target: T1, human histamine H4 receptor (SP9144) (Homo sapiens, UniProt Q9H3N8); experiment: Competition binding versus [3H]-histamine on membranes of SP9144-transfected HEK293 cells
T1 construct: expressed in transfected cells; host or cells: HEK293
Description: Membrane preparation. Forty-eight hours after transfection with plasmid containing the sequence for SP9144, HEK293 cells were harvested from T150 flasks by incubating 5 minutes in 5 ml of 5 mM EDTA/Hanks' balanced salt solution followed by repeated pipeting. They were centrifuged 5 minutes at 1000×g. The EDTA/PBS was decanted and an equal volume of ice-cold 50 mM Tris-HCl, pH 7.5, was added and cells were broken up with a Polytron (PT10 tip, setting 5, 30 seconds). Nuclei and unbroken cells were sedimented at 1000×g for 10 minutes and then the supernatant was centrifuged at 50,000×g for 10 minutes. The supernatant was decanted, the pellet was resuspended by Polytron, a sample was taken for protein assay (bicinchoninic acid, Pierce; Rockford, Ill.), and the tissue was again centrifuged at 50,000×g. Pellets were stored frozen at −20° C.
Binding assay. […] Samples were filtered on GF/B filters and washed thrice with 2 ml of cold Tris buffer. Filters were dried in a microwave oven, impregnated with Meltilex wax scintillant, and counted at 45% efficiency.
Competition binding assays.
Curves were fit to the data with Prism (GraphPad Software) nonlinear least-squares curve-fitting program and Ki values were derived from IC50 values according to Cheng and Prusoff (Cheng, et al., (1973) Biochem. Pharm. 22:3099-3108).

[2] = test system: LPS-induced inflammatory response in rat airways; experiment: BAL cells recovered from LPS-challenged rats (pulmonary inflammation); assay type: in vivo; details: for Cells (neutrophils or total cells) counted in BAL of LPS-challenged rats compared with rats treated with a blank: oral dosing five hours before LPS; for % Inhibition of neutrophilic cellular influx into BAL in response to LPS challenge / % Inhibition of total cellular influx into BAL in response to LPS challenge: 10 mg/kg orally five hours before intratracheal LPS
Description: Male Sprague-Dawley rats (250-300 g) were anesthetized by inhalation of isoflurane (flow rate 1 ml/min; supplemented with O2). Using a Penn-Centry microspray needle, 0.1 ml of a 100-μg/ml LPS solution in saline was injected into the trachea. Animals not challenged with the LPS solution received 0.1 ml of saline. Animals were placed on a heat pad until they recovered from anesthesia. Afterward, they were returned to their cages and allowed food and water ad libitum. All animals survived these manipulations and no additional interventions were required to ensure their survival. Animals fasted overnight were orally dosed with either the standard PD4 inhibitor and positive-control, SB207499 (c4-cyano-4-(3-cyclopentyloxy-4-methoxy-phenyl)-r-1-cyclohexanecarboxylic acid; Barnette, et al., (1998) J. Pharm. Exp. Ther. 284: 420-426), the compound of formula 17 or vehicle as a negative-control (0.4% methylcellulose) five hours before the LPS challenge.
At appropriate time points after intratracheal challenge with LPS, animals were surgically prepared with a tracheal cannula. Surgery was performed under anesthesia. The airways were flushed with 2×2 ml of 0.9% saline and the two washings pooled. Lavage fluid was centrifuged (350 g, 4° C., 7 minutes), supernatant aspirated, erythrocytes lysed, and pellet washed in phosphate-buffered saline containing 10% heat-inactivated fetal calf serum and 10 μg/ml DNase I. The cell suspension was centrifuged, supernatant aspirated, and pellet resuspended in the same buffer. Total cell counts were performed using a Nebauer hemacytometer. Differential cell counts were conducted on Cytospin-prepared slides stained with Fisher's Leukostat stain. At least 200 cells were assessed per slide and standard morphological criteria were used to define neutrophilic cells.
The total number of cells and the number of neutrophils in the broncheoalveolar lavage (BAL) recovered from rats treated with the compound of formula 17, SB207499 or a blank were counted and compared. Fewer cells (i.e., neutrophils or total cells) were counted in the BAL of LPS-challenged rats treated with the compound of formula 17 or with SB207499 than that of rats treated with a blank. […] The data from these experiments is set forth below in Tables 6 and 7.

[3] = biological target: T2, human H4 (H4-HEK293 cells) (Homo sapiens, UniProt Q9H3N8); experiment: Membrane binding assay, [3H]-histamine, for H4 binding
T2 construct: expressed in transfected cells
Description: (§1) In the present example, the affinities of several compounds for the H1, H3 and H4 receptors was determined by a membrane binding assay.
(§2) Materials. Rat and guinea-pig brains were obtained frozen from Rockland Immunochemicals (Gilbertsville, Pa.). Cell lines expressing recombinant human receptors were generated by using standard transfection techniques. The following radioligands were obtained from Dupont NEN (Boston, Mass.): [^3H]-pyrilamine, 23 Ci/mmol, for H1 binding; [^3H]-N′-methylhistamine, 82 Ci/mmol, for H3 binding and [^3H]-histamine, 20 Ci/mmol, for H4 binding.
(§3) Methods. Recombinant cell lines (i.e., human H1-CHO cells, human H3-HEK293 and human H4-HEK293 cells) were cultured in Dulbecco's modified Eagle's medium/10% fetal bovine serum supplemented with 2 mM glutamine, penicillin (100 U/ml), and streptomycin (100 μg/ml) in a humidified 5% CO2 atmosphere at 37° C. Selection was maintained with 0.5 mg geneticin/ml. Cells were harvested for membrane preparation by aspirating media, replacing it with Hanks' balanced salt solution/5 mM EDTA, and incubating flasks for 10 minutes at 37° C. Cells were pelleted by centrifugation at 1000×g for ten minutes at 4° C.
(§4) Membrane preparation. Membranes were prepared by disrupting cells or tissue in at least ten volumes of ice-cold 50 mM Tris-HCl, pH 7.5 at 25° C., with a Polytron. homogenates were centrifuged ten minutes at 1000×g and the supernatants were then centrifuged for ten minutes at 50,000×g. Pellets from this centrifugation step were resuspended with a Polytron, a sample was taken for protein determination (BCA; Pierce; Rockford, Ill.), and the resuspension was again centrifuged at 50,000×g. Brain membranes were stored as pellets, cell membranes as suspensions of 1 mg protein/ml Tris buffer at −20° C.
(§5) Binding assays. […] Assay mixtures were incubated for 30 minutes at 30° C. in polypropylene, 96-well, deep-well plates then filtered through 0.3% polyethylenimine-soaked GF/B filters. These were washed three times with 1.2 ml of Tris buffer, dried in a microwave oven, impregnated with Meltilex wax scintillant and counted at 40% efficiency in a Betaplate scintillation counter (Wallac). IC50 values were determined by interpolation or by nonlinear, least-squares, curve-fitting with the Prism program (GraphPad Software). Ki values were determined in the manner of Cheng and Prusoff (Cheng, et al., (1973) Biochem. Pharm. 22:3099-3108).

human H1 (H1-CHO cells) = biological target: T3, human H1 (H1-CHO cells) (Homo sapiens, UniProt P35367); experiment: Membrane binding assay, [3H]-pyrilamine, for H1 binding; details: for H1 Ki, value given in %: concentration not given
T3 construct: expressed in transfected cells
Description: as §1, §2, §3, §4, §5

[4] = biological target: T4, human H3 (H3-HEK293 cells) (Homo sapiens, UniProt Q9Y5N1); experiment: Membrane binding assay, [3H]-N-methylhistamine, for H3 binding; details: concentration not given
T4 construct: expressed in transfected cells
Description: Materials. Rat and guinea-pig brains were obtained frozen from Rockland Immunochemicals (Gilbertsville, Pa.). Cell lines expressing recombinant human receptors were generated by using standard transfection techniques.
Methods. […] Selection was maintained with 0.5 mg geneticin/ml. Cells were harvested for membrane preparation by aspirating media, replacing it with Hanks' balanced salt solution/5 mM EDTA, and incubating flasks for 10 minutes at 37° C. Cells were pelleted by centrifugation at 1000×g for ten minutes at 4° C.
Membrane preparation. […] Pellets from this centrifugation step were resuspended with a Polytron, a sample was taken for protein determination (BCA; Pierce; Rockford, Ill.), and the resuspension was again centrifuged at 50,000×g. Brain membranes were stored as pellets, cell membranes as suspensions of 1 mg protein/ml Tris buffer at −20° C.
as §5, with “Software).” for “Software). Ki values were determined in the manner of Cheng and Prusoff (Cheng, et al., (1973) Biochem. Pharm. 22:3099-3108).”

[5] = 18 nM [3H]-histamine, cells printed in μM
[6] = membrane binding, [3H]-histamine, read-out: H4 Ki

T3 sequence (P35367 whole entry): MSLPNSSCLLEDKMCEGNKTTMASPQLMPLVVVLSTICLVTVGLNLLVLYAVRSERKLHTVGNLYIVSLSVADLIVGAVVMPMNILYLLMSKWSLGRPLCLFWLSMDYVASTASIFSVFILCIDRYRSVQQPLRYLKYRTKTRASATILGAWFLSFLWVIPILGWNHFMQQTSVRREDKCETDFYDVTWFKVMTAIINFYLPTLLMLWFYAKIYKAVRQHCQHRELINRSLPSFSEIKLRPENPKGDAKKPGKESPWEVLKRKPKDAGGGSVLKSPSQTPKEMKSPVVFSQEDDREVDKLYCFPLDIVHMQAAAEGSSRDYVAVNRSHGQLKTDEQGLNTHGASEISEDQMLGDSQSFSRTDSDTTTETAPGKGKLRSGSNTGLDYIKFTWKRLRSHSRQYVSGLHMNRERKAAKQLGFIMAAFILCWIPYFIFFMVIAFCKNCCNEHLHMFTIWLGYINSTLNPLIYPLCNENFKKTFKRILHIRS
T4 sequence (Q9Y5N1 whole entry): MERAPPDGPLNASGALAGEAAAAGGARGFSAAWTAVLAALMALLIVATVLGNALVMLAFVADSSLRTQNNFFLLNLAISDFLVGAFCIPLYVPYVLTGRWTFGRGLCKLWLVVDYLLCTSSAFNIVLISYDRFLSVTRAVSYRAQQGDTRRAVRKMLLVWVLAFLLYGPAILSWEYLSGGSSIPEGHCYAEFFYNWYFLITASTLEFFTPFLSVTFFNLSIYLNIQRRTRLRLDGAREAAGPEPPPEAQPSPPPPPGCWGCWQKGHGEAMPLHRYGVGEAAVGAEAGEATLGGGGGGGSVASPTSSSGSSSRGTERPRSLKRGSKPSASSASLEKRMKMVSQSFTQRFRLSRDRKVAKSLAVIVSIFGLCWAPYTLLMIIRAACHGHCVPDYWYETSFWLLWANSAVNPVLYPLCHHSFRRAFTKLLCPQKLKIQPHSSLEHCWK

SMILES: C[C@@H](N)Cc1c[nH]cn1 [(R)-α-methylhistamine]
- Ki [1]: 0.14 ± 0.01 µM

SMILES: C[C@H](N)Cc1c[nH]cn1 [(S)-α-methylhistamine]
- Ki [1]: 3.4 ± 0.3 µM

SMILES: CN/C(=N/CCSCc1nc[nH]c1C)NC#N [Cimetidine]
- Ki [1, 5]: > 10 µM

SMILES: NC(=NCc1ccc(Cl)cc1)SCCCc1cnc[nH]1 [Clobenpropit]
- Ki [1]: 0.0072 ± 0.0005 µM

SMILES: CN(C)CCCSC(=N)N [Dimaprit]
- Ki ([1]; read-out: Ki ± SEM versus [3H]histamine binding to SP9144-transfected HEK293 cells, 18 nM [3H]-histamine, 70 μg membrane protein, Ki from IC50 by Cheng and Prusoff): 0.38 ± 0.07 µM

SMILES: Nc1ncc(CN2CCC(F)(C(=O)N3CCC(n4c(-c5ccccn5)nc5cccnc54)CC3)CC2)cn1 [Formula 17]
- Cells (neutrophils or total cells) counted in BAL of LPS-challenged rats compared with rats treated with a blank [2]: Fewer cells

SMILES: NC(=NCc1ccc(Cl)cc1)SCCCc1cnc[nH]1 [Formula 18]
- Ki [3]: 34 nM

SMILES: O=C(c1ccccn1)N1CCC(Cc2c[nH]cn2)CC1 [Formula 20]
- Ki [3, 6]: 38 nM

SMILES: CC(C)(C)CCC#C[C@@H]1C[C@H]1c1c[nH]cn1 [Formula 21]
- Ki [3, 6]: 90 nM

SMILES: CN1CCC(N(C)Cc2ccc(OCCCN3CCC(Cc4c[nH]cn4)CC3)cc2)CC1 [Formula 27]
- Ki [3, 6]: 325 nM

SMILES: CC(C)(C(=O)O)c1ccc(C(=O)CCCN2CCC(OC(c3ccccc3)c3ccccc3)CC2)cc1 [Formula 36]
- H4 Ki column, value given in % ([3]; concentration not given): 2%
- H3 Ki column, value given in % [4]: 1%
- Ki (human H1 (H1-CHO cells); membrane binding, [3H]-pyrilamine): 15 nM

SMILES: N=C(N)SCCc1cnc[nH]1 [Imetit]
- Ki [1]: 0.0031 ± 0.0007 µM

SMILES: CNCCc1c[nH]cn1 [N^α-methylhistamine]
- Ki [1]: 0.063 ± 0.002 µM

SMILES: COc1ccc([C@]2(C#N)CC[C@@H](C(=O)O)CC2)cc1OC1CCCC1 [SB207499, c4-cyano-4-(3-cyclopentyloxy-4-methoxy-phenyl)-r-1-cyclohexanecarboxylic acid, reference compound]
- % Inhibition of neutrophilic cellular influx into BAL in response to LPS challenge [2]: 68.7%
- % Inhibition of total cellular influx into BAL in response to LPS challenge [2]: 61.2%
- Cells (neutrophils or total cells) counted in BAL of LPS-challenged rats compared with rats treated with a blank [2]: Fewer cells

Further lines, with some results ahead:

- Ki [1, 5]: > 10 µM
SMILES: CN(C)CCC(c1ccc(Cl)cc1)c1ccccn1 (stereo not shown) [Chlorpheniramine]

- Ki [3, 6]: 38 nM
- H1 Ki, value given in % (human H1 (H1-CHO cells)): 0%
SMILES: O=C(c1cnc2ccccc2c1)N1CCC(Cc2c[nH]cn2)CC1 [Formula 19]
- % Inhibition of neutrophilic cellular influx into BAL in response to LPS challenge [2]: 71.6%
- % Inhibition of total cellular influx into BAL in response to LPS challenge [2]: 64.5%

- Ki [3, 6]: 92 nM
SMILES: O=C(CCN1CCC(Cc2c[nH]cn2)CC1)Nc1cccc(Cl)c1 [Formula 22]

- Ki [3, 6]: 205 nM
SMILES: O=S(=O)(c1ccc(Cl)cc1)N1CCC(CCc2c[nH]cn2)C1 (stereo not shown) [Formula 23]

- Ki [3, 6]: 290 nM
SMILES: c1nc(CC2CCN(CCCOc3ccc(CN4CCCCC4)cc3)CC2)c[nH]1 [Formula 24]

- Ki [3, 6]: 300 nM
SMILES: O=C(CCN1CCC(Cc2c[nH]cn2)CC1)NCCc1ccc(Cl)cc1 [Formula 25]

- Ki [3, 6]: 320 nM
- H1 Ki, value given in % (human H1 (H1-CHO cells)): 0%
SMILES: O=C(NCc1ccc(Cc2c[nH]cn2)cc1)Nc1cc(Cl)cc(Cl)c1 [Formula 26]

- Ki [3, 6]: 390 nM
SMILES: Clc1ccc(C(=C2CCN(CCCCc3c[nH]cn3)CC2)c2ccccn2)cc1 [Formula 28]

- Ki [3, 6]: 440 nM
SMILES: c1ccc2c(c1)C1CC(CNCCCCc3c[nH]cn3)C2c2ccccc21 (stereo not shown) [Formula 29]

- Ki [3, 6]: 480 nM
SMILES: Clc1ccc(C(CCNCCCCc2c[nH]cn2)c2ccccn2)cc1 (stereo not shown) [Formula 30]

- Ki [3, 6]: 770 nM
SMILES: Clc1ccc(C(=C2CCN(CCCCCc3c[nH]cn3)CC2)c2ccccn2)cc1 [Formula 31]

- Ki [3, 6]: 850 nM
- H1 Ki, value given in % (human H1 (H1-CHO cells)): 32%
SMILES: CC(C)(C)c1ccc(S(=O)(=O)NCCCCc2c[nH]cn2)cc1 [Formula 32]

- Ki [3, 6]: 870 nM
SMILES: C/C(=C\C(=O)Nc1ccc(Cl)cc1)c1ccc(Cc2c[nH]cn2)cc1 [Formula 33]

- Ki [3, 6]: 1100 nM
- H1 Ki, value given in % (human H1 (H1-CHO cells)): 48%
SMILES: O=C(NCCCCc1c[nH]cn1)C1(c2ccc(Cl)cc2)CCC1 [Formula 34]

- Ki [3, 6]: 1100 nM
- H1 Ki, value given in % (human H1 (H1-CHO cells)): 0%
SMILES: O=C(/C=C/c1ccc(Cc2c[nH]cn2)cc1)NCCc1ccc(Cl)cc1 [Formula 35]
